Each structure is given as a SMILES string.

One assay concerns the target T1, Aurora A (Homo sapiens, UniProt O14965).
T1 construct: cell lysates from Jurkat cells (ATCC TIB-152) used; endogenous in cells; host or cells: Jurkat cells (ATCC TIB-152), treated with pervanadate
T1 sequence (O14965 1-403): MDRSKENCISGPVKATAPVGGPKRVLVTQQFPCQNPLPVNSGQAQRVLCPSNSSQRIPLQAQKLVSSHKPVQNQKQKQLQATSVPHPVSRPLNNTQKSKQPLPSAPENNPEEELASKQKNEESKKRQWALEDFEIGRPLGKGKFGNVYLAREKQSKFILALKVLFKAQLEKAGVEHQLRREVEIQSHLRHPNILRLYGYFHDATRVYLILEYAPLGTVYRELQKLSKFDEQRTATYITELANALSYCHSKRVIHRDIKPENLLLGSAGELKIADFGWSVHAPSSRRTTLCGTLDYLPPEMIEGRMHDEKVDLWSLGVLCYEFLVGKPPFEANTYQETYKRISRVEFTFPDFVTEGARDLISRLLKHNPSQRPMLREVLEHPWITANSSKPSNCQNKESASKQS
As to the kind of experiment: Kinobeads assay, Aurora A. In kind it is binding. The following applies: for IC50: lysate of pervanadate-treated Jurkat cells, read-out: Inhibition values (IC50) Aur A.

For another assay, the target named is T2, Aurora B (Homo sapiens, UniProt Q96GD4).
T2 construct: cell lysates from Jurkat cells (ATCC TIB-152) used; endogenous in cells; host or cells: Jurkat cells (ATCC TIB-152), treated with pervanadate
T2 sequence (Q96GD4 whole entry): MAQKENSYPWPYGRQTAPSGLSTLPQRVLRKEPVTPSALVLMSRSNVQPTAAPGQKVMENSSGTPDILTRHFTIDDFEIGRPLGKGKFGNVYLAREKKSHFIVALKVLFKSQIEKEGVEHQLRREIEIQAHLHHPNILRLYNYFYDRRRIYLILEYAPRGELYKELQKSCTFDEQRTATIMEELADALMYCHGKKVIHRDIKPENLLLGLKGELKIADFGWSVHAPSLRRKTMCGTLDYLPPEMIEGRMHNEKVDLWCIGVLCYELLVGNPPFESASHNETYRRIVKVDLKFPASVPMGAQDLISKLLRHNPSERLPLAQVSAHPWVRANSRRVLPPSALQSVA
As to the kind of experiment: Kinobeads assay, Aurora B. In kind it is binding. The following applies: for IC50: lysate of pervanadate-treated Jurkat cells, read-out: Inhibition values (IC50) Aur B.

By IC50 is commonly meant the point on the concentration scale where inhibition reaches its midpoint. On to `Fc1cc(N2CCOCC2)c(F)c(Cn2ncc3cnc(Nc4cn[nH]c4)nc32)c1F` [Example 81, N-(1H-Pyrazol-4-yl)-1-(2,3,6-trifluoro-5-morpholinobenzyl)-1H-pyrazolo[3,4-d]pyrimidin-6-amine], for which, at Aurora A, the “JAK3/AurA Fold Selectivity” value is on record as over 50 Fold and the IC50 lay within 0.1 to 1 µM. Further, on Aurora B, the “JAK3/AurB Fold Selectivity” value is listed as 10-50 Fold and the IC50 lay within 0.1 to 1 µM.

Consider `CNC(=O)Cn1cc(Nc2ncc3cnn(Cc4cc(F)cc(N5CCOCC5=O)c4)c3n2)cn1` [Example 68, 2-(4-((1-(3-Fluoro-5-(3-oxomorpholino)benzyl)-1H-pyrazolo[3,4-d]pyrimidin-6-yl)amino)-1H-pyrazol-1-yl)-N-methylacetamide], for which, at Aurora A, the “JAK3/AurA Fold Selectivity” value is 10-50 Fold and the IC50 fell in the range of 0.1 to 1 µM. For the same molecule, at Aurora B, the “JAK3/AurB Fold Selectivity” value is on record as over 50 Fold and the concentration for half-maximal inhibition (IC50) was 0.1 to 1 µM.

As for `OCCn1cc(Nc2ncc3cnn(Cc4cc(N5CCNCC5)cc(F)c4F)c3n2)cn1` [Example 78, 2-(4-((1-(2,3-Difluoro-5-(piperazin-1-yl)benzyl)-1H-pyrazolo[3,4-d]pyrimidin-6-yl)amino)-1H-pyrazol-1-yl)ethanol], at Aurora A, the “JAK3/AurA Fold Selectivity” value is reported as 10-50 Fold and the concentration for half-maximal inhibition (IC50) lay in the range of 0.1 to 1 µM. Besides, on Aurora B, the “JAK3/AurB Fold Selectivity” value is 3-10 Fold and the IC50 was under 0.1 µM.

As for `COC1CCN(c2cccc(Cn3ncc4cnc(Nc5cnn(C)c5)nc43)c2)CC1` [Example 77, 1-(3-(4-Methoxypiperidin-1-yl)benzyl)-N-(1-methyl-1H-pyrazol-4-yl)-1H-pyrazolo[3,4-d]pyrimidin-6-amine], on Aurora A, the “JAK3/AurA Fold Selectivity” value is on record as 3-10 Fold and the IC50 was in the range of 0.1 to 1 µM. Moreover, on Aurora B, the “JAK3/AurB Fold Selectivity” value is given as 3-10 Fold and the concentration for half-maximal inhibition (IC50) lay in the range of 0.1 to 1 µM.

With `Cn1cc(Nc2ncc3cnn(Cc4cccc(N5CCNCC5=O)c4F)c3n2)cn1` [Example 54, 1-(2-Fluoro-3-((6-((1-methyl-1H-pyrazol-4-yl)amino)-1H-pyrazolo[3,4-d]pyrimidin-1-yl)methyl)phenyl)piperazin-2-one], at Aurora A, the “JAK3/AurA Fold Selectivity” value was over 50 Fold and the IC50 lay in the range of 0.1 to 1 µM. On Aurora B, the “JAK3/AurB Fold Selectivity” value was over 50 Fold and the half-maximal inhibitory concentration (IC50) fell in the range of 1 to 10 µM.

`OCCn1cc(Nc2ncc3cnn(Cc4c(F)ccc(N5CCOCC5)c4F)c3n2)cn1` [Example 82, 2-(4-((1-(2,6-Difluoro-3-morpholinobenzyl)-1H-pyrazolo[3,4-d]pyrimidin-6-yl)amino)-1H-pyrazol-1-yl)ethanol]: on Aurora A, the “JAK3/AurA Fold Selectivity” value was 3-10 Fold and the IC50 lay within 0.1 to 1 µM. Further, at Aurora B, the “JAK3/AurB Fold Selectivity” value was 3-10 Fold and the IC50 was under 0.1 µM.

As to `CN(C)CCCn1cc(Nc2ncc3cnn(Cc4cccc(N5CCOCC5=O)c4F)c3n2)cn1` [Example 50, 4-(3-((6-((1-(3-(Dimethylamino)propyl)-1H-pyrazol-4-yl)amino)-1H-pyrazolo[3,4-d]pyrimidin-1-yl)methyl)-2-fluorophenyl)morpholin-3-one], on Aurora A, the “JAK3/AurA Fold Selectivity” value is listed as over 50 Fold and the IC50 lay within 0.1 to 1 µM. At Aurora B, the “JAK3/AurB Fold Selectivity” value is on record as over 50 Fold and the IC50 fell in the range of 0.1 to 1 µM.

As for `OCCn1cc(Nc2ncc3cnn(Cc4cc(N5CCOCC5)cc(F)c4F)c3n2)cn1` [Example 56, 2-(4-((1-(2,3-Difluoro-5-morpholinobenzyl)-1H-pyrazolo[3,4-d]pyrimidin-6-yl)amino)-1H-pyrazol-1-yl)ethanol], on Aurora A, the “JAK3/AurA Fold Selectivity” value is over 50 Fold and the half-maximal inhibitory concentration (IC50) was 1 to 10 µM. At Aurora B, the “JAK3/AurB Fold Selectivity” value is recorded as over 50 Fold and the IC50 lay within 1 to 10 µM.

As for `Cn1cc(Nc2ncc3cnn(Cc4cccc(N5CCNCC5)c4F)c3n2)cn1` [Example 67, 1-(2-Fluoro-3-(piperazin-1-yl)benzyl)-N-(1-methyl-1H-pyrazol-4-yl)-1H-pyrazolo[3,4-d]pyrimidin-6-amine], on Aurora A, the “JAK3/AurA Fold Selectivity” value is on record as over 50 Fold and the IC50 fell in the range of 0.1 to 1 µM. On Aurora B, the “JAK3/AurB Fold Selectivity” value is recorded as 10-50 Fold and the half-maximal inhibitory concentration (IC50) lay in the range of 0.1 to 1 µM.

The values above are taken from US9040545B2, “Heterocyclyl pyrazolopyrimidine analogues as selective JAK inhibitors” (Cellzome Limited, priority 2010, dated 2015).
